Test results taken from PubChem BioAssay (NCI).
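Following 48 hours of exposure in 96-well plates, responses at five concentrations were used to interpolate endpoints linearly. GI50 marks 50% less growth. TGI is the concentration that stops growth completely.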

Legend:
Assay in all cases: inhibition of tumour cell growth, NCI panel, 48 h
HCT-116 colon = tested on: HCT-116 colon
A498 renal = tested on: A498 renal
SK-OV-3 ovarian = tested on: SK-OV-3 ovarian
SK-MEL-2 melanoma = tested on: SK-MEL-2 melanoma
ACHN renal = tested on: ACHN renal
MDA-MB-231 breast = tested on: MDA-MB-231 breast
MCF7 breast = tested on: MCF7 breast
HL-60(TB) leukemia = tested on: HL-60(TB) leukemia
SN12C renal = tested on: SN12C renal
SW-620 colon = tested on: SW-620 colon

Compound | GI50 (HCT-116 colon) [µM] | TGI (HCT-116 colon) [µM] | GI50 (A498 renal) [µM] | TGI (A498 renal) [µM] | GI50 (SK-OV-3 ovarian) [µM] | TGI (SK-OV-3 ovarian) [µM] | GI50 (SK-MEL-2 melanoma) [µM] | TGI (SK-MEL-2 melanoma) [µM] | GI50 (ACHN renal) [µM] | TGI (ACHN renal) [µM] | GI50 (MDA-MB-231 breast) [µM] | TGI (MDA-MB-231 breast) [µM] | GI50 (MCF7 breast) [µM] | TGI (MCF7 breast) [µM] | GI50 (HL-60(TB) leukemia) [µM] | TGI (HL-60(TB) leukemia) [µM] | GI50 (SN12C renal) [µM] | TGI (SN12C renal) [µM] | GI50 (SW-620 colon) [µM] | TGI (SW-620 colon) [µM]
CCC(C)(C)c1ccc(OCCCCCCN2CCNCC2)cc1 | 1.7 | 3.12 | 6.82 | 24.5 | 11.3 | 25.7 | 2.19 | 4.74 | 2.19 | 5.45 | 1.44 | 3.11 | 1.56 | 3.2 | 1.76 | 3.65 | 3.48 | 13.5 | 1.95 | 3.97
N#CC(=NCCO)C1=C(O)c2ccccc2C1=O |  | > 100 |  | > 100 |  | > 100 |  | > 100 |  | > 100 |  | > 100 |  | > 100 |  | > 100 |  | > 100 |  | > 100
COCCOc1cnc2ccn([C@H](C)c3nnc4c(F)cc(-c5cnn(C)c5)cn34)c(=O)c2c1 | > 100 | > 100 | 33.1 | > 100 | > 100 | > 100 | > 100 | > 100 | > 100 | > 100 | > 100 | > 100 | > 100 | > 100 | > 100 | > 100 | > 100 | > 100 | > 100 | > 100
Cc1cc(N/N=C/c2nc(-c3ccc(Br)cc3)oc2C)c2cc(Br)ccc2n1 | 3.52 | 12.2 | 16.5 | 53.2 | 16.6 | 30.2 | 25.6 | 68.1 | 2.86 | 8.05 | 2.95 | 10.1 | 1.68 | 3.74 | 2.24 | 6.28 | 2.1 | 5.36 | 2.04 | 4.81
[Au+].[Au+].[Au+].[c-]1nccn1Cc1ccccc1.[c-]1nccn1Cc1ccccc1.[c-]1nccn1Cc1ccccc1 | 6.68 | 18.6 | 16.1 | 33.6 | 19.4 | 36.8 | 1.98 | 3.9 | 14.3 | 28.6 | 22 | 70.5 | 10.7 | 39 | 3.16 | 16 | 8.42 | 55.3 | 7.78 | > 19.7
CCn1c(CO)nn(-c2cc(O[C@@H](C)C(F)(F)F)c(C(=O)Nc3c(F)cccc3Cl)cc2F)c1=O | < 0.01 | > 100 | 3.84 | > 100 | 3.05 | > 100 | > 28.4 | > 100 | < 0.0122 | > 100 | > 20.1 | > 100 | < 0.01 | > 100 | 0.0357 | > 46.7 | 0.081 | > 100 | < 0.01 | > 100
Cc1cc(I)cc(CN(C)CCCN2CCOCC2)c1O | 24 | > 100 | 19.1 | 48.6 | 82.9 | > 100 | 19.6 | 38.5 | > 100 | > 100 | 39.7 | > 100 | 32.7 | > 100 | 27.7 | 72 | > 100 | > 100 | 33.5 | > 100
Cc1cc(S(=O)(=O)N/N=C(\Sc2cc(Cl)c(C)cc2S(N)(=O)=O)c2ccc(Cl)cc2)c(Cl)cc1Cl | 79.4 | > 100 | 57.1 | > 100 | > 100 | > 100 | > 100 | > 100 | 25.6 | 73.9 | 34.2 | > 100 | 42.8 | > 100 | 76.4 | > 100 | 97.2 | > 100 | 40.4 | > 100
CC(=O)O[C@H](C[C@H](C(C)C)N(C)C(=O)[C@@H](NC(=O)[C@H]1CCCCN1C)C(C)C)c1nc(C(=O)N[C@@H](Cc2ccccc2)C[C@H](C)C(=O)O)c(CCOCc2ccccc2)s1 | < 0.001 | 0.176 | < 0.001 | 0.00316 | < 0.001 | > 10 | < 0.001 | > 5.68 | 0.00105 | > 10 | < 0.001 |  | < 0.001 | > 10 | < 0.001 | < 0.001 | < 0.001 | > 10 | < 0.001 | > 10
C=CCSS/C=C/CS(=O)CC=C (centres undefined) |  | 27.3 |  | > 100 |  | > 100 |  | 97.6 |  | > 100 |  | 56.3 |  | > 100 |  | > 100 |  | > 65.9 |  | 22.7
